In patent publication US20240279226A1, “ERGOLINE-DERIVED AGONISTS OF THE 5-HT2A RECEPTOR” (priority 2021, published 2024):

How the values were obtained:
5-HT2A receptor = 5-HT2A receptor (Homo sapiens (Human), UniProt P28223); assay: biochemical; type: binding; conditions: radioligand [3H]-ketanserin, cell membrane, 27° C. 90 min
Experimental: Compound binding was calculated as a % inhibition of the binding of a radioactively labeled ligand specific for each receptor. Results with inhibition >50% were considered to represent significant effects. In each experiment, the respective reference compound was tested in parallel with the test compounds, and the data were compared with previous values determined at Eurofins.
Bovine Serum Albumin (BSA), calcium chloride (CaCl2)), and polyethylenimine, branched (PEI) were purchased from Sigma. Tris(hydroxymethl)aminomethane (Tris) was purchased from Alfa Aesar.
Microbeta^2 microplate counter, MicroBeta Filtermate-96, and UniFilter-96 GF/C were purchased from PerkinElmer. TopSeal was purchased from Biotss. Seven Compact pH meter was purchased from Mettler Toledo. Ultrapure water meter was purchased from Sichuan Ulupure. Benchtop Centrifuge was purchased from Hunan Xiangyi. Microplate shaker was purchased from Allsheng. 384-Well Polypropylene Microplate was purchased from Labcyte. 96 round well plate was purchased from Corning. 96 round deep well plate was purchased from Axygen. Echo was purchased from LABCYTE. • 1. Prepare the assay buffer following the table below:
• 2. […] Read the plate by using a Microbeta^2 microplate counter.
• 11. […] The IC50 is determined by fitting percentage of inhibition function of compound concentrations with Hill equation using XLfit.

5-HT2C receptor = 5-HT2C receptor (Homo sapiens (Human), UniProt P28335); assay: biochemical; type: binding; conditions: radioligand [3H]-Mesulergine, cell membrane, 27° C. 60 min
Chain of 5-HT2C receptor (P28335 33-458 limits assumed): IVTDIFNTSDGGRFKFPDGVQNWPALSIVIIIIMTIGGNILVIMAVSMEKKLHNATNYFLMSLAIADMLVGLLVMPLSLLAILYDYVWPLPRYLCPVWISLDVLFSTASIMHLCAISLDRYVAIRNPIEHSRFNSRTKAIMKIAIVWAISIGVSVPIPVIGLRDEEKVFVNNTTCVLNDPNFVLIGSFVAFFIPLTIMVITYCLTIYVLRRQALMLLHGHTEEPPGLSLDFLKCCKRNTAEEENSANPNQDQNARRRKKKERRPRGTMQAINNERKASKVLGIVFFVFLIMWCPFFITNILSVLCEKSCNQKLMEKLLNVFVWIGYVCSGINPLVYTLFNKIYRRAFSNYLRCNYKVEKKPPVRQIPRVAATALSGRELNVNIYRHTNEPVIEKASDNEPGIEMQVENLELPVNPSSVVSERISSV

[2H]C([2H])([2H])N1C[C@@H](NC(=O)N(CC)OC)C=C2c3cccc4[nH]cc(c34)C[C@H]21 [Example 6a, 1-ethyl-1-methoxy-3-((6aR,9S)-7-(methyl-d3)-4,6,6a,7,8,9-hexahydroindolo[4,3-fg]quinolin-9-yl)urea]
IC50 (5-HT2A receptor): 2.6 nM
IC50 (5-HT2C receptor): 96 nM

[2H]C([2H])([2H])N1C[C@H](NC(=O)N(CC)OC)C=C2c3cccc4[nH]cc(c34)C[C@H]21 [Example 6b, 1-ethyl-1-methoxy-3-((6aR,9R)-7-(methyl-d3)-4,6,6a,7,8,9-hexahydroindolo[4,3-fg]quinolin-9-yl) urea]
IC50 (5-HT2A receptor): 6.5 nM
IC50 (5-HT2C receptor): 312 nM
